Measured values as given in USRE36374E, “1,2,3-triazole and tetrazole substituted piperidine or tetrahydropyridine compounds useful as acetylcholine agonists” (priority 1987, dated 1999).
Where a name gives a salt, the structure may show the parent alone.

Tests used:
[1] = background; cited from earlier work
AcCh receptors = settings: background; cited from earlier work
[2] = peripheral administration; background; cited from earlier work
[3] = peripheral administration; background; cited from earlier work; remark: listed apart in the source
[4] = target: central cholinergic receptors; assay: 3H-oxotremorine-M (Oxo-M) displacement from rat brain homogenates; assay type: binding; settings: displacement of 3H-oxotremorine-M, pH 7.4, 40 min, 30° C
Experimental: (§1) Affinity to central cholinergic receptors in vitro was measured as the ability of the compounds to displace ^3 H-oxotremorine-M (Oxo-M) from rat brain homogenates, while affinity to central muscarinic M-1-receptors in vitro was measured as the ability of the compounds to displace ^3 H-pirenzepin (Pz) from rat brain homogenates.
^3 H-oxotremorine M binding
was performed essentially as described by Birdsdall et al., 1980. Briefly, rat brains were homogenized in 100 vol (w/v) 10 mM Na,K-phosphate buffer (pH 7.4) and aliquots incubated with ^3 H-oxotremorine M (84.9 Ci/m-mol, NEN) alone or in the presence of test compound in a total volume of 1.5 ml for 40 min. at 30° C. The reaction was stopped by adding 5 ml cold buffer and filtered through Whatman GF/B filters soaked previously in 0.1% polyethylenimin (Sigma) for minimum 30 min. The filters were washed once with the same volume of buffer, transferred to scintillation vials and extracted in scintillation fluid (Pico-fluor 15, Packard) for at least two hours before counted in a liquid scintillation spectrometer (Beckman LS 1800). Non-specific binding was estimated at 10 μM atropine and all estimations made in triplicate. At least two displacement curves were made for each compound tested.
Birdsdall N. J. M., Hulme E. C., and Burgen A. S. V. (1980). "The Character of Muscarinic Receptors in Different Regions of the Rat Brain". Proc. Roy. […] London (Series B) 207, 1.

[5] = target: T1, central muscarinic M-1-receptors (Rattus norvegicus, UniProt P08482); assay: 3H-pirenzepine (Pz) displacement from rat brain homogenates; assay type: binding; settings: displacement of 1.0 nM 3H-pirenzepine, rat brain homogenates, 60 min, 25° C; read-out: Pz, IC50
T1 sequence (P08482 1-460): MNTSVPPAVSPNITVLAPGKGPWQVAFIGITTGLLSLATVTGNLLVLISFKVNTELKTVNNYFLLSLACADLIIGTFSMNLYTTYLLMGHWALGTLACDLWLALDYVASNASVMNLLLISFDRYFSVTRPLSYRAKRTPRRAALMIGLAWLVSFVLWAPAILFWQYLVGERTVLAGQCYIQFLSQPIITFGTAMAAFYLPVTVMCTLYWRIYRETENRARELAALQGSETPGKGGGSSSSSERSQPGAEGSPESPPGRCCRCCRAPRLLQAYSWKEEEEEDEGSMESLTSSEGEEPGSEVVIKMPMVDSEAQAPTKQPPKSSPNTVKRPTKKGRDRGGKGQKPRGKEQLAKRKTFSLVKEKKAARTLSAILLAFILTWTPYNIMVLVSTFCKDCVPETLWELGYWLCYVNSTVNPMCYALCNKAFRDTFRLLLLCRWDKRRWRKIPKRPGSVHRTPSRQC
Experimental: as §1
was performed essentially as described by Watson et al., 1983, the conditions being very much the same as for ^3 H-oxotremorine binding, except that aliquots were incubated with 1.0 nM ^3 H-pirenzepine for 60 min. at 25° C. and that the reaction was stopped by direct filtration followed by 3 washes with 4 ml buffer.
Watson, M., Yamamura, H. I., and Roeske, W. R. (1983). "A unique regulatory profile and regional distribution of ^3 H-pirenzepin binding in the rat provide evidence for distinct M1 and M2 muscarinic receptor subtypes". Life Sci. 32 (1983) 3001-3011.

Structure (SMILES)	hydrolysis of ester group in vivo [1]	AcCh agonist activity (AcCh receptors)	central effects [2]	penetration of blood-brain barrier [3]	IC50 [4] [nM]	IC50 [5] [nM]
COC(=O)C1=CCCN(C)C1 [Arecoline, methyl 1-methyl-1,2,5,6-tetrahydropyridine-3-carboxylate]	very rapidly hydrolyzed in vivo	AcCh agonist	very weak and frequently negligible central effects	capable of penetrating the BBB		
CC1CC=C(c2nnn(C)n2)CN1 (stereo not drawn) [Compound 30, 2-Methyl-5-(6-methyl-1,2,5,6-tetrahydro-3-pyridyl)-2H-tetrazole, hydrobromide]					250	1400
Cn1nnc(C2=CCCNC2)n1 [Compound 8, 2-Methyl-5(1,2,5,6-tetrahydro-3-pyridyl)-2H-tetrazole, hydrobromide]					6.3	2100
CC1C=C(c2nnn(C)n2)CNC1 (stereo not drawn) [Compound 47, 2-Methyl-5-(5-methyl-1,2,5,6-tetrahydro-3-pyridyl)-2H-tetrazole, hydrobromide]					98	280
Cn1cnc(C2=CCCNC2)n1 [Compound 60, 1-Methyl-3-(1,2,5,6-tetrahydro-3-pyridyl-1,2,4-triazole, dihydrobromide]					1400	4900
Cc1nc(C2=CCCNC2)nn1C [Compound 64, 1,5Dimethyl-3-(1,2,5,6-tetrahydro-3-pyridyl)-1,2,4-triazole, dihydrobromide, dihydrate]					2100	2400
CSc1n[nH]c(C2=CCCN(C)C2)n1 [Compound 67, 3-Methylthio-5-(1-methyl-1,2,5,6-tetrahydro-3-pyridyl)-1,2,4-triazole, fumarate]					1500	2000
Cc1cnc(C2=CCCNC2)o1 [Compound 76, 5-Methyl-2-(1,2,5,6-tetrahydro-3-pyridyl)-oxazole, fumarate]					190	1300
